Structures can show the parent of a compound that is named as a salt. Where two headings read alike, the source gives them in different places. One block for each compound: values may come before it.
Assays:
Format in all cases: cell-based, human
[1] = test system: HTT mRNA; assay: Splicing RT-qPCR gene panel, HTT canonical junction (CJ) mRNA; conditions: Homo sapiens, Tables 4A/4B, read-out: HTT (IC50, decrease in CJ mRNA, gene panel)
Outline: (§1)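 Cells (A673 in DMEM/10% FBS, K562 in IMDM/10% FBS) got compound for 24 h, top dose 10 uM, 11 points, 3-fold steps, DMSO ≤0.25%. Lysates went to RT-qPCR for the canonical exon-exon junction; ΔΔCt against housekeeper and DMSO gave RQ, then percentage response.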

[2] = test system: HTT mRNA; assay: Splicing RT-qPCR assay, HTT canonical (CJ) and alternative (AJ) junction mRNA; conditions: Homo sapiens, A673 or K562 cells, 24 hours compound treatment; for IC50: 24 h, read-out: HTT CJ (IC50, decrease in canonical junction mRNA); for AC50: read-out: HTT AJ (AC50, increase in alternative junction mRNA)
Outline: (§2)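 Compound-induced exon inclusion is tracked as an increase in AJ transcript alongside the CJ transcript. Cells (A673 normalized to PPIA; K562 to GAPDH or GUSB) are dosed 24 h with a serial dilution topping at 10 uM, ≤0.25% DMSO, then lysed and analysed by RT-qPCR in at least duplicate.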

[3] = test system: MYB mRNA; assay: Splicing RT-qPCR assay, MYB canonical (CJ) and alternative (AJ) junction mRNA; conditions: Homo sapiens; for AC50: read-out: MYB AJ (AC50, increase in alternative junction mRNA)
Outline: as §2

[4] = test system: SMN2 mRNA; assay: Splicing RT-qPCR gene panel, SMN2 canonical junction (CJ) mRNA; conditions: Homo sapiens, Tables 4A/4B, read-out: SMN2 (IC50, decrease in CJ mRNA, gene panel)
Outline: as §1

[5] = test system: Target C mRNA; assay: Splicing RT-qPCR gene panel, Target C canonical junction (CJ) mRNA; conditions: Homo sapiens, Tables 4A/4B, read-out: Target C (IC50, decrease in CJ mRNA, gene panel)
Outline: as §1

[6] = 24 h, A673 or K562 cells, 24 hours compound treatment, RT-qPCR
[7] = 24 h, A673 or K562 cells, 24 hours compound treatment, RT-qPCR, read-out: MYB CJ (IC50, decrease in canonical junction mRNA)
[8] = Tables 4A/4B, canonical junction qPCR panel, read-out: MYB (IC50, decrease in CJ mRNA, gene panel)

Structure (SMILES): Cc1cn2cc(NC(=O)c3ccc(N4CCNCC4)c4cn(Cc5cn[nH]c5)nc34)cc(F)c2n1 [Compound 341, N-{8-fluoro-2-methylimidazo[1,2-a]pyridin-6-yl}-4-(piperazin-1-yl)-2-(1H-pyrazol-4-ylmethyl)indazole-7-carboxamide]
- IC50 [1]: > 10 µM
- IC50 [2]: > 10 µM
- AC50 [2]: > 10 µM
- AC50 [3, 6]: 1 to 10 µM
- IC50 [3, 7]: 1 to 10 µM
- IC50 [3, 8]: 1 to 10 µM
- IC50 [4]: 0.1 to 1 µM
- IC50 [5]: > 10 µM

Structure (SMILES): COc1c(NC(=O)c2ccc(N3CCNCC3)c3cn(C)nc23)cn2cc(C)nc2c1F [Compound 343, N-{8-fluoro-7-methoxy-2-methylimidazo[1,2-a]pyridin-6-yl}-2-methyl-4-(piperazin-1-yl) indazole-7-carboxamide]
- IC50 [1]: < 0.1 µM
- IC50 [2]: < 0.1 µM
- AC50 [2]: < 0.1 µM
- AC50 [3, 6]: < 0.1 µM
- IC50 [3, 7]: < 0.1 µM
- IC50 [3, 8]: < 0.1 µM
- IC50 [4]: < 0.1 µM
- IC50 [5]: 0.1 to 1 µM

Structure (SMILES): COc1c(NC(=O)c2ccc(N3CCNCC3)c3cn(C)nc23)cc2cn(C)nc2c1C [Compound 344, N-(6-methoxy-2,7-dimethylindazol-5-yl)-2-methyl-4-(piperazin-1-yl) indazole-7-carboxamide trifluoroacetate]
- IC50 [1]: > 10 µM
- IC50 [2]: > 10 µM
- AC50 [2]: > 10 µM
- AC50 [3, 6]: 1 to 10 µM
- IC50 [3, 7]: 1 to 10 µM
- IC50 [3, 8]: 1 to 10 µM
- IC50 [4]: 0.1 to 1 µM
- IC50 [5]: > 10 µM

Structure (SMILES): Cc1cn2cc(NC(=O)c3ccc(N4CCC(NCc5ccccn5)CC4)c4cn(C)nc34)cc(F)c2n1 [Compound 347, N-{8-fluoro-2-methylimidazo[1,2-a]pyridin-6-yl}-2-methyl-4-{4-[(pyridin-2-ylmethyl)amino]piperidin-1-yl}indazole-7-carboxamide]
- IC50 [1]: 1 to 10 µM
- IC50 [2]: 1 to 10 µM
- AC50 [2]: 1 to 10 µM
- AC50 [3, 6]: < 0.1 µM
- IC50 [3, 7]: < 0.1 µM
- IC50 [3, 8]: < 0.1 µM
- IC50 [4]: < 0.1 µM
- IC50 [5]: 1 to 10 µM

Structure (SMILES): Cc1cn2cc(NC(=O)c3ccc(N4CCC5(CC4)CNC5)c4cn(C)nc34)cc(F)c2n1 [Compound 348, 4-{2,7-diazaspiro[3.5]nonan-7-yl}-N-{8-fluoro-2-methylimidazo[1,2-a]pyridin-6-yl}-2-methylindazole-7-carboxamide]
- IC50 [1]: 1 to 10 µM
- IC50 [2]: 1 to 10 µM
- AC50 [2]: 1 to 10 µM
- AC50 [3, 6]: < 0.1 µM
- IC50 [3, 7]: < 0.1 µM
- IC50 [3, 8]: < 0.1 µM
- IC50 [4]: < 0.1 µM
- IC50 [5]: 1 to 10 µM

Structure (SMILES): Cc1cn2cc(NC(=O)c3ccc(N4CCNCC4)c4cn(CC(C)(C)O)nc34)cc(F)c2n1 [Compound 354, N-{8-fluoro-2-methylimidazo[1,2-a]pyridin-6-yl}-2-(2-hydroxy-2-methylpropyl)-4-(piperazin-1-yl)indazole-7-carboxamide]
- IC50 [1]: > 10 µM
- IC50 [2]: > 10 µM
- AC50 [2]: > 10 µM
- AC50 [3, 6]: 1 to 10 µM
- IC50 [3, 7]: 1 to 10 µM
- IC50 [3, 8]: 1 to 10 µM
- IC50 [4]: 0.1 to 1 µM
- IC50 [5]: > 10 µM

Structure (SMILES): Cc1cn2cc(NC(=O)c3ccc(N4CCNCC4)c4cn(CC5(O)CC5)nc34)cc(F)c2n1 [Compound 358, N-{8-fluoro-2-methylimidazo[1,2-a]pyridin-6-yl}-2-[(1-hydroxycyclopropyl)methyl]-4-(piperazin-1-yl)indazole-7-carboxamide]
- IC50 [1]: 1 to 10 µM
- IC50 [2]: 1 to 10 µM
- AC50 [2]: > 10 µM
- AC50 [3, 6]: 0.1 to 1 µM
- IC50 [3, 7]: 0.1 to 1 µM
- IC50 [3, 8]: 0.1 to 1 µM
- IC50 [4]: < 0.1 µM
- IC50 [5]: > 10 µM

Structure (SMILES): CNc1cc(N2CCNCC2)c2cn(C)nc2c1C(=O)Nc1cc(F)c2nc(C)cn2c1 [Compound 362, N-{8-fluoro-2-methylimidazo[1,2-a]pyridin-6-yl}-2-methyl-6-(methylamino)-4-(piperazin-1-yl) indazole-7-carboxamide]
- IC50 [1]: > 10 µM
- IC50 [2]: > 10 µM
- AC50 [2]: > 10 µM
- AC50 [3, 6]: 1 to 10 µM
- IC50 [3, 7]: 1 to 10 µM
- IC50 [3, 8]: 1 to 10 µM
- IC50 [4]: 0.1 to 1 µM
- IC50 [5]: > 10 µM

Structure (SMILES): Cc1cn2cc(NC(=O)c3ccc(N4CCNCC4)c4cn(CC(C)(F)F)nc34)cc(F)c2n1 [Compound 364, 2-(2,2-difluoropropyl)-N-{8-fluoro-2-methylimidazo[1,2-a]pyridin-6-yl}-4-(piperazin-1-yl) indazole-7-carboxamide; trifluoroacetic acid]
- IC50 [1]: 1 to 10 µM
- IC50 [2]: 1 to 10 µM
- AC50 [2]: > 10 µM
- AC50 [3, 6]: 0.1 to 1 µM
- IC50 [3, 7]: 1 to 10 µM
- IC50 [3, 8]: 1 to 10 µM
- IC50 [4]: < 0.1 µM
- IC50 [5]: > 10 µM

Further lines, with some results ahead:

- IC50 [1]: > 10 µM
- IC50 [2]: > 10 µM
- IC50 [3, 7]: 1 to 10 µM
- IC50 [3, 8]: 1 to 10 µM
- IC50 [4]: 0.1 to 1 µM
- IC50 [5]: > 10 µM
Structure (SMILES): Cc1cn2cc(NC(=O)c3ccc(N4CCNCC4)c4cn(Cc5ccc6[nH]ncc6c5)nc34)cc(F)c2n1 [Compound 340, N-{8-fluoro-2-methylimidazo[1,2-a]pyridin-6-yl}-2-(1H-indazol-5-ylmethyl)-4-(piperazin-1-yl) indazole-7-carboxamide trifluoroacetate]
- AC50 [2]: > 10 µM
- AC50 [3, 6]: 1 to 10 µM

- IC50 [1]: > 10 µM
- IC50 [2]: > 10 µM
- IC50 [3, 7]: 1 to 10 µM
- IC50 [3, 8]: 1 to 10 µM
- IC50 [4]: > 10 µM
- IC50 [5]: > 10 µM
Structure (SMILES): Cc1cn2cc(NC(=O)c3ccc(N4CCNCC4)c4cn(C)nc34)[nH]c(=O)c2n1 [Compound 342, N-{8-hydroxy-2-methylimidazo[1,2-a]pyrazin-6-yl}-2-methyl-4-(piperazin-1-yl) indazole-7-carboxamide]
- AC50 [2]: > 10 µM
- AC50 [3, 6]: > 10 µM

- IC50 [1]: 0.1 to 1 µM
- IC50 [2]: 0.1 to 1 µM
- IC50 [3, 7]: < 0.1 µM
- IC50 [3, 8]: < 0.1 µM
- IC50 [4]: < 0.1 µM
- IC50 [5]: 0.1 to 1 µM
Structure (SMILES): Cc1cn2cc(NC(=O)c3ccc(N4CCC5(CCCN5)CC4)c4cn(C)nc34)cc(F)c2n1 [Compound 349, 4-{1,8-diazaspiro[4.5]decan-8-yl}-N-{8-fluoro-2-methylimidazo[1,2-a]pyridin-6-yl}-2-methylindazole-7-carboxamide]
- AC50 [2]: 0.1 to 1 µM
- AC50 [3, 6]: < 0.1 µM

- IC50 [1]: > 10 µM
- IC50 [2]: > 10 µM
- IC50 [3, 7]: < 0.1 µM
- IC50 [3, 8]: < 0.1 µM
- IC50 [4]: < 0.1 µM
- IC50 [5]: > 10 µM
Structure (SMILES): Cc1cn2cc(NC(=O)c3ccc(N4CCNCC4)c4cn(C5CC(O)C5)nc34)cc(F)c2n1 (stereo not shown) [Compound 355, N-{8-fluoro-2-methylimidazo[1,2-a]pyridin-6-yl}-2-(3-hydroxycyclobutyl)-4-(piperazin-1-yl)indazole-7-carboxamide]
- AC50 [2]: 1 to 10 µM
- AC50 [3, 6]: < 0.1 µM

- IC50 [1]: > 10 µM
- IC50 [2]: > 10 µM
- IC50 [3, 7]: 0.1 to 1 µM
- IC50 [3, 8]: 0.1 to 1 µM
- IC50 [4]: < 0.1 µM
- IC50 [5]: > 10 µM
Structure (SMILES): Cc1cn2cc(NC(=O)c3ccc(N4CCNCC4)c4cn(C5CCOC5)nc34)cc(F)c2n1 (stereo not shown) [Compound 356, N-{8-fluoro-2-methylimidazo[1,2-a]pyridin-6-yl}-2-(oxolan-3-yl)-4-(piperazin-1-yl)indazole-7-carboxamide]
- AC50 [2]: > 10 µM
- AC50 [3, 6]: 0.1 to 1 µM

From patent publication US20250154169A1, “COMPOUNDS AND METHODS FOR MODULATING SPLICING” (REMIX THERAPEUTICS INC., priority 2021, published 2025)
